These results are taken from patent publication US20260373164A1, “4(RS)-4-F4-NEUROPROSTANE DERIVATIVES (4-F4T-NEUROP) AND THEIR USE IN TREATING VENTILATOR INDUCED DIAPHRAGMATIC DYSFUNCTION AND OTHER DISEASES” (INSTITUT NATIONAL DE LA SANTÉ ET DE LA RECHERCHE MÉDICALE, priority 2022, published 2026).

The test system of experiment [1] is calstabin1/RyR1 complex. As to the kind of experiment: RyR1 biochemical analysis (immunoprecipitation): oxidation, phosphorylation, calstabin1 interaction. Format: in vivo, mouse. Conditions: for RyR function: associated with VIDD prevention in the murine and porcine models; for RyR oxidation, and phosphorylation: statement in discussion for both compounds. How it is done:
Muscle biopsies were homogenized in 150 μl of buffer containing 5% SDS, 5% beta-mercaptoethanol, 10% glycerol, 10 mM EDTA and 50 mM Tris/HCl buffer (pH=8.0). Each sample was immediately denatured at 90 °C for 4 min. After centrifugation (5000 rpm) at 4 °C, supernatant protein concentrations were measured in duplicate using the BCA protein assay, equilibrated at the same concentration by dilution with loading buffer and aliquoted at 2 μg/μl. RyR1 was immunoprecipitated from 250 μg of homogenate using an anti-RyR antibody (4 μg RyR1-1327) in 0.5 ml of a modified RIPA buffer (50 mM Tris-HCl pH 7.4, 0.9% NaCl, 5.0 mM NaF, 1.0 mM Na3VO4, 1% Triton-X100, and protease inhibitors) for 1 hr at 4 °C. The immune complexes were incubated with protein A Sepharose beads (Amersham Pharmacia) at 4 °C for 1 hr and the beads were washed three times with buffer. Proteins were separated on SDS-PAGE gels (4-20% gradient) and transferred onto nitrocellulose membranes for 2 hr at 200 mA (SemiDry transfer blot, Bio-Rad). To prevent non-specific antibody binding, the membranes were incubated with blocking solution (LICOR Biosciences) and washed with Tris-buffered saline with 0.1% Tween-20.
Blots were respectively incubated with primary antibody to RyR1 (RyR1-1327, an affinity-purified rabbit polyclonal antibody raised against a KLH-conjugated peptide with the amino acid sequence CAEPDTDYENLRRS, corresponding to residues 1327-1339 of mouse skeletal RyR1, with an additional cysteine residue added to the amino terminus), and affinity purified with the unconjugated peptide. The inventors also used antibody to calstabin1 (1:2500 in blocking buffer, LICOR Biosciences); phospho-epitope-specific antibody to human RyR2 phosphorylated on Ser-2808 (1:5,000), which detects PKA-phosphorylated mouse RyR1 (on Ser-2844) and RyR2 (on Ser-2808); antibody to S-nitrosylated cysteine residues (1:1000, Sigma). To determine RyR1 oxidation, the immunoprecipitate was treated with 2, 4-dinitrophenyl hydrazine, and the derivatized carbonyls were detected using an OxyBlot protein oxidation detection Kit (catalog S7150, Chemicon International Inc.). After three washes, membranes were incubated with infrared-labeled secondary antibodies. Control samples were analyzed on each gel for normalization and total levels of RyR1 were not different between groups.
Diaphragm samples from the above experiments were frozen and solubilized to further investigate the biochemical properties of the RyR1 macromolecular complex.

In experiment [2] the test system is piglet diaphragm (VIDD). As to the kind of experiment: Trans-diaphragmatic pressure (Pdi)-frequency relationship after 72 hours of mechanical ventilation in piglets. Format: in vivo. Conditions: for prevention of VIDD in porcine model: general statement, piglets. As for the experimental part:
As previously described^18,25, twelve piglets (15-20 kg) were separated in two groups of six animals/each. In both groups, oxygenation was maintained with a fraction of inspired oxygen (FIO2) ranging from 25 to 35%, tidal volume between 10 and 12 ml·kg^−1 body weight and breathing frequency from 15 to 30 cycles/min to maintain normocapnia. In the first group (MV group), piglets were mechanically ventilated using CMV, with a positive end-expiratory pressure level at 5 cm H2O. The absence of spontaneous breathing was verified on the ventilator trend graphs, and the diaphragm electromyographic activity was measured to ensure the absence of diaphragm electrical activity. In the second group (control group), piglets were ventilated using ASV, with settings in phase with the piglet body weight (inspiratory flow trigger at 0.3 L·min^−1, percentage of mechanical ventilation between 100 and 150%, positive end-expiratory pressure level at 5 cm H2O, and expiratory trigger at 25% of the peak inspiratory flow). The diaphragm electromyographic activity was assessed to verify that piglets could breathe spontaneously. Both groups received the same care, except for the MV mode.
Briefly, piglets were anesthetized by intravenous injection of 5-6 mg kg^−1 pentobarbital sodium, intubated with a cuffed endotracheal tube and mechanically ventilated (Galileo®; Hamilton Medical AG, Rhazuns, Switzerland). Anesthesia was maintained with continuous intravenous infusion of 15-20 mg·kg^−1 propofol, 0.1-0.3 mg·kg^−1 midazolam and 3-4 mg·kg^−1·h^−1 ketamine. The level of sedation was monitored by using a bispectral index system (BIS®; Aspect, Norwood, MA). Heating pads were employed, as needed, to maintain the normal body temperature of 38.5-39.5 °C. […]
Arterial carbon dioxide pressure was monitored using a capnograph (Deltatrac®; Datex-Ohmeda, Helsinki, Fin-land) and verified by arterial blood gas analysis (iSTAT®; Abbott, Abbott Park, IL). […]
The diaphragm contractile function was assessed in vivo by measuring the transdiaphragmatic pressure (Pdi)^18. […]

Entries after “also recorded” stand apart in the source; their conditions may differ.

As for `CC/C=C\C/C=C\C/C=C\C[C@@H]1[C@H](/C=C/C(O)CCC(=O)O)[C@@H](O)C[C@H]1O` (mixture of isomers) [Compound 4F4t-NeuroP, 4(RS)-4-F4t-Neuroprostane], in experiment [1], the RyR function entry is “normalization of RyR function”; the “RyR oxidation, and phosphorylation” value was “prevent RyR oxidation, and phosphorylation”. Moreover, the “biochemical signature of leaky RyR1 (oxidation, ser2844 phosphorylation, calstabin1 depletion)” value in experiment [1] (mouse diaphragm after 6 h MV, 4F4t-NeuroP IV) was “this post-translational remodeling was prevented; also recorded: fully prevented”. Also, the calstabin1/RyR1 complex result in experiment [1] (mouse diaphragm after 6 h MV, calstabin1/RyR1 interaction) is on record as “Stabilizes the Complex Calstabin1/RyR1”. Besides, the “prevention of VIDD in porcine model” value in experiment [2] was “prevent with a high efficiency VIDD”.
On to `CC/C=C\C[C@@H]1[C@H](/C=C/C(O)CCC(=O)O)[C@@H](O)C[C@H]1O` (mixture of isomers) [VB558, (E)-6-((1S,2R,3R,5S)-3,5-dihydroxy-2-((Z)-pent-2-en-1-yl)cyclopentyl)-4-hydroxyhex-5-enoic Acid], for which, in experiment [1], the RyR function result was “normalization of RyR function”; the “RyR oxidation, and phosphorylation” value is “prevent RyR oxidation, and phosphorylation”. For the same compound, the “reduction of trans-diaphragmatic pressure (Pdi) / VIDD in piglets” value in experiment [2] (IV bolus 0.250 mg·kg^−1 then 0.025 mg·kg^−1 every 12 hours, 72 h MV) is “prevents VIDD in piglets after 72 hours of ventilation; also recorded: fully prevented”. Further, the “prevention of VIDD in porcine model” value in experiment [2] is reported as “prevent with a high efficiency VIDD”.
